Test results taken from PMC10386613 (Molecules, 2023).
Where “and” joins values, the source holds several entries; their conditions need not be identical. Identical values can stand only once. Like-named read-outs stand apart in the source and are kept apart here.

How the values were obtained:
[1] = molecular target: T1, neuraminidase from Clostridium perfringens (Clostridium perfringens, UniProt A0A0H2YQR1); assay type: biochemical; settings: for Ki: Dixon plot, read-out: Ki (inhibition constant); for Inhibition Mode: Lineweaver–Burk plot; for IC50: fluorescent substrate 100 μM, 0.2 unit/mL enzyme, 50 mM sodium acetate buffer, read-out: IC50 against bacterial neuraminidase (BNA)
T1 sequence (A0A0H2YQR1 42-694 limits assumed): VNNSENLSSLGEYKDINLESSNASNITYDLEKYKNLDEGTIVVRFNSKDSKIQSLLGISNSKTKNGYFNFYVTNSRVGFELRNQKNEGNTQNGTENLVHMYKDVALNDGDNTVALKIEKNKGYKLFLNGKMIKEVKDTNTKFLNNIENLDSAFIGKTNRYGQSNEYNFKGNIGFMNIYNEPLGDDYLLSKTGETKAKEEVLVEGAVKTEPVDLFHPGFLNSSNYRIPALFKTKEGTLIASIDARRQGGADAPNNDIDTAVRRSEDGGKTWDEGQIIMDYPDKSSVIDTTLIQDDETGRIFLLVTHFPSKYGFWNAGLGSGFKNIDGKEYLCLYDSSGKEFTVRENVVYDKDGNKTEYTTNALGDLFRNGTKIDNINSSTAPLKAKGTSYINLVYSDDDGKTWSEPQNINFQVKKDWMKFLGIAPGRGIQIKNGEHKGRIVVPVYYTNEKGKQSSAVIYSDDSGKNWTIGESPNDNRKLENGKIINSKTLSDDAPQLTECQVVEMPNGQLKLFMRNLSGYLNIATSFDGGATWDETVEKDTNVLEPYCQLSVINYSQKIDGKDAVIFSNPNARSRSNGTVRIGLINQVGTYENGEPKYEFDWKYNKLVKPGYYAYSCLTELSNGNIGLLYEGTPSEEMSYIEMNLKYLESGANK

[2] = molecular target: T1, neuraminidase from Clostridium perfringens; assay type: binding; settings: for KSV (Stern–Volmer quenching constant): excitation 290 nm, emission near 360 nm
[3] = fluorescence quenching, without substrate

Compound | Ki [1] [µM] | Inhibition Mode [1] | IC50 [1] | KSV (Stern–Volmer quenching constant) ([2]; without substrate) [L/mol] | KA (binding constant) [2, 3] [L/mol] | n (number of binding sites) [2, 3] | KA (binding constant) [2]
3,7-O-dimethyl quercetin [Compound 3] | 22.4 ± 0.9 | Noncompetitive | 25.8 µM and 24.3 µM | 1530 | 38180 | 1.0959 | –
COc1c(-c2ccc(O)c(O)c2)oc2cc(O)cc(O)c2c1=O [Compound 1, 3-O-methyl quercetin] | – | Noncompetitive | – | 2520 | – | 1.2106 | 0.05105
COc1cc(O)c2c(=O)c(OC)c(-c3ccc(OC)c(O)c3)oc2c1 [Compound 4, 3,7,4′-O-trimethyl quercetin] | – | Noncompetitive | – | 360 | – | 0.7071 | 0.00021
3,4′-O-dimethyl quercetin [Compound 2] | 24.7 ± 0.5 | Noncompetitive | 24.3 µM and 25.8 µM | 1440 | 39940 | 1.1063 | –
